Experimental data published in patent US4587233A, “Use of Arg-Phe-amide derivatives” (Board of Trustees of the Leland Stanford Junior University, priority 1983, dated 1986).
Counter-ions that a name gives are not always drawn.

Legend:
[1] = tested on: Blood Pressure of Anesthetized Rats; test: Blood pressure bioassay in urethane-anesthetized rats, peptides injected intravenously; assay type: in vivo, male Sprague-Dawley rats; parameters: key to Duration of blood pressure effect: +: short-lasting blood pressure elevation at all doses; ++: short-lasting blood pressure elevation at low doses; +++: long-lasting elevation at low doses; settings: i.v.; for Maximal increase in blood pressure mm Hg diastolic / Maximal increase in blood pressure mm Hg systolic: over the dose-range tested (nmol/kg)
Experimental: Bioassays were conducted on male Sprague-Dawley rats, weighing 250-450 g, and anesthetized by an intraperitoneal injection of a 25 percent urethane solution (1.25 g/kg). The left femoral artery was cannulated with PE 50 polyethylene tubing for monitoring of blood pressure with a pressure transducer RP-1500 (Narco Biosystems). Injections of peptides or drugs were made via a PE 10 tubing into the left femoral vein. Respiration was measured by an impedance method by which the respiratory movements of the chest are registered. The method gives indirect information on respiration amplitude. Heart and respiration frequency were obtained by using biotachometer couplers which measure mean frequencies. Body temperature was measured in the rectum with a thermistor (Yellow Springs Instruments) and maintained between 36.5° and 37.5° C. Peptides or drugs were dissolved in sterile H2 O and the volumes injected intravenously were usually 0.1 ml and never exceeded 0.2 ml.

[2] = tested on: pressor activity of FMRF-NH2 in urethane-anesthetized rats; test: Pressor activity of FMRF-NH2 after pretreatment with vasodepressor drugs and pharmacologic antagonists; assay type: in vivo; settings: for Effect of drug pretreatment on pressor activity of FMRF-NH2: FMRF-NH2 challenge 16, 128, 512 nmol/kg i.v. 5-10 minutes after drug pretreatment; for Attenuation of the FMRFamide pressor effect: FMRF-NH2 challenge 16, 128, 512 nmol/kg i.v. after pretreatment with drugs interacting with the α-adrenergic system; for Effect of lower doses of drug on FMRFamide pressor effect: effective at blocking norepinephrine hydrochloride 3 to 15 μg/kg
[3] = tested on: pressor effects of angiotensin II, Arg^8 -vasopressin, norepinephrine hydrochloride; test: Effectiveness of the antagonists against their respective pressor agonists; assay type: in vivo, rats; settings: for Blocking of the pressor effects of norepinephrine hydrochloride: lower doses of drug, norepinephrine hydrochloride 3 to 15 μg/kg

N[C@@H](Cc1ccccc1)C(=O)O [F-- OH, phenylalanine]
Pressor activity (blood pressure elevation), in words [1]: Neither arginine nor phenylalanine nor phenylalanine-amide were active
Maximal increase in blood pressure mm Hg diastolic [1]: 0 mm Hg
Maximal increase in blood pressure mm Hg systolic [1]: 0 mm Hg

NC(=O)[C@@H](N)Cc1ccccc1 [F--NH2, phenylalanine-amide]
Pressor activity (blood pressure elevation), in words [1]: Neither arginine nor phenylalanine nor phenylalanine-amide were active
Maximal increase in blood pressure mm Hg diastolic [1]: 0 mm Hg
Maximal increase in blood pressure mm Hg systolic [1]: 0 mm Hg

CC(COc1ccccc1)N(CCCl)Cc1ccccc1 (stereo not drawn) [Phenoxybenzamine hydrochloride]
Effect of drug pretreatment on pressor activity of FMRF-NH2 [2]: no effect

N=C(N)NCCC[C@H](N)C(=O)O [R--OH, arginine]
Pressor activity (blood pressure elevation), in words [1]: Neither arginine nor phenylalanine nor phenylalanine-amide were active
Maximal increase in blood pressure mm Hg diastolic [1]: 0 mm Hg
Maximal increase in blood pressure mm Hg systolic [1]: 0 mm Hg

CN1[C@@H]2CC[C@H]1C[C@@H](OC(=O)C(CO)c1ccccc1)C2 (stereo partly drawn) [atropine]
Effect of drug pretreatment on pressor activity of FMRF-NH2 [2]: did not modify

Clc1cccc(Cl)c1N=C1NCCN1 [clonidine hydrochloride]
Attenuation of the FMRFamide pressor effect [2]: 30-75%

CN1CCC(=C2c3ccccc3C=Cc3ccccc32)CC1 [cyproheptadine]
Effect of drug pretreatment on pressor activity of FMRF-NH2 [2]: did not modify

CN1C[C@H](C(=O)N[C@]2(C)O[C@@]3(O)[C@@H]4CCCN4C(=O)[C@H](Cc4ccccc4)N3C2=O)C[C@@H]2c3cccc4[nH]cc(c34)C[C@H]21 [dihydroergotamine mesylate]
Attenuation of the FMRFamide pressor effect [2]: 30-75%

C[N+](C)(C)CCCCCC[N+](C)(C)C [hexamethonium bromide]
Effect of drug pretreatment on pressor activity of FMRF-NH2 [2]: not blocked

C=CCN1CC[C@]23c4c5ccc(O)c4O[C@H]2C(=O)CC[C@@]3(O)[C@H]1C5.Cl [nalozone hydrochloride]
Effect of drug pretreatment on pressor activity of FMRF-NH2 [2]: did not modify

Cc1ccc(N(CC2=NCCN2)c2cccc(O)c2)cc1 [phentolamine hydrochloride]
Attenuation of the FMRFamide pressor effect [2]: 30-75%
Effect of lower doses of drug on FMRFamide pressor effect [2]: did not affect
Blocking of the pressor effects of norepinephrine hydrochloride [3]: effective at blocking

CCCO [propanol hydrochloride]
Effect of drug pretreatment on pressor activity of FMRF-NH2 [2]: not blocked

COC(=O)[C@H]1[C@H]2C[C@@H]3c4[nH]c5cc(OC)ccc5c4CCN3C[C@H]2C[C@@H](OC(=O)c2cc(OC)c(OC)c(OC)c2)[C@@H]1OC [reserpine]
Effect of drug pretreatment on pressor activity of FMRF-NH2 [2]: did not modify

CNCC(=O)N[C@@H](CCCN=C(N)N)C(=O)N[C@H](C(=O)N[C@@H](Cc1ccc(O)cc1)C(=O)N[C@H](C(=O)N[C@@H](Cc1cnc[nH]1)C(=O)N1CCC[C@H]1C(=O)N[C@@H](C)C(=O)O)C(C)C)C(C)C [saralasin]
Effect of drug pretreatment on pressor activity of FMRF-NH2 [2]: not blocked
Antagonism of angiotensin II ([3]; agonist angiotensin II 2 μg/kg): effective antagonists

c1ccc(CC2=NCCN2)cc1 [tolazoline hydrochloride]
Attenuation of the FMRFamide pressor effect [2]: 30-75%
Effect of lower doses of drug on FMRFamide pressor effect [2]: did not affect
Blocking of the pressor effects of norepinephrine hydrochloride [3]: effective at blocking

(1-(β-mercapto-β,β-cyclopentamethylene propionic acid), 2-(0-methyl)tyrosine)Arg^8 -Vasopressin
Effect of drug pretreatment on pressor activity of FMRF-NH2 [2]: not blocked
Antagonism of Arg^8 -vasopressin ([3]; agonist Arg^8 -vasopressin 1 μg/kg): effective antagonists

gamma 1-melanotropic stimulating hormone [q MSH]
Duration of blood pressure effect [1]: +++
Pressor activity (blood pressure elevation), in words [1]: exhibits pressor activity
Maximal increase in blood pressure mm Hg diastolic [1]: 70 mm Hg
Maximal increase in blood pressure mm Hg systolic [1]: 90 mm Hg

nitroprusside
Effect of drug pretreatment on pressor activity of FMRF-NH2 [2]: did not modify
